How the values were obtained:
Assay in all cases: relative viability (nuclei count vs DMSO), 5 days (fraction); higher = more cells survive
Imatinib + Palbociclib = compound: Cc1ccc(NC(=O)c2ccc(CN3CCN(C)CC3)cc2)cc1Nc1nccc(-c2cccnc2)n1 [Imatinib] + CC(=O)c1c(C)c2cnc(Nc3ccc(N4CCNCC4)cn3)nc2n(C2CCCC2)c1=O [Palbociclib] (partner 0.5 µM)
How it was run: (§1)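 Lung cancer cell lines were pin-tool dosed in 1536-well plates on the day after seeding, with either a lone drug or a fixed anchor-drug dose plus five library-drug doses (not always all listed) in √10 steps. Nuclei were counted on 4× images after 5 days. Relative viability is the ratio of treated-well to vehicle-well nuclei counts, with each value a median of duplicate plates.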

Imatinib + Navitoclax = compound: Cc1ccc(NC(=O)c2ccc(CN3CCN(C)CC3)cc2)cc1Nc1nccc(-c2cccnc2)n1 [Imatinib] + CC1(C)CCC(c2ccc(Cl)cc2)=C(CN2CCN(c3ccc(C(=O)NS(=O)(=O)c4ccc(N[C@H](CCN5CCOCC5)CSc5ccccc5)c(S(=O)(=O)C(F)(F)F)c4)cc3)CC2)C1 [Navitoclax] (partner 0.5 µM)
How it was run: as §1

Imatinib + Crizotinib = compound: Cc1ccc(NC(=O)c2ccc(CN3CCN(C)CC3)cc2)cc1Nc1nccc(-c2cccnc2)n1 [Imatinib] + C[C@@H](Oc1cc(-c2cnn(C3CCNCC3)c2)cnc1N)c1c(Cl)ccc(F)c1Cl [Crizotinib] (partner 1 µM)
How it was run: as §1

Imatinib + Vorinostat = compound: Cc1ccc(NC(=O)c2ccc(CN3CCN(C)CC3)cc2)cc1Nc1nccc(-c2cccnc2)n1 [Imatinib] + O=C(CCCCCCC(=O)Nc1ccccc1)NO [Vorinostat] (partner 1 µM)
How it was run: as §1

Cell Line | relative viability (Imatinib + Palbociclib; first compound 0.02 µM) | relative viability (Imatinib + Palbociclib; first compound 0.06325 µM) | relative viability (Imatinib + Palbociclib; first compound 0.2 µM) | relative viability (Imatinib + Palbociclib; first compound 0.6325 µM) | relative viability (Imatinib + Palbociclib; first compound 2 µM) | relative viability (Imatinib + Navitoclax; first compound 0.02 µM) | relative viability (Imatinib + Navitoclax; first compound 0.06325 µM) | relative viability (Imatinib + Navitoclax; first compound 0.2 µM) | relative viability (Imatinib + Navitoclax; first compound 0.6325 µM) | relative viability (Imatinib + Navitoclax; first compound 2 µM) | relative viability (Imatinib + Crizotinib; first compound 0.02 µM) | relative viability (Imatinib + Crizotinib; first compound 0.06325 µM) | relative viability (Imatinib + Crizotinib; first compound 0.2 µM) | relative viability (Imatinib + Crizotinib; first compound 0.6325 µM) | relative viability (Imatinib + Crizotinib; first compound 2 µM) | relative viability (Imatinib + Vorinostat; first compound 0.02 µM) | relative viability (Imatinib + Vorinostat; first compound 0.06325 µM) | relative viability (Imatinib + Vorinostat; first compound 0.2 µM) | relative viability (Imatinib + Vorinostat; first compound 0.6325 µM) | relative viability (Imatinib + Vorinostat; first compound 2 µM)
NCI-H1650 | 0.341 | 0.344 | 0.342 | 0.295 | 0.301 | 1.39 | 1.35 | 1.25 | 1.31 | 1.13 | 1.04 | 1.06 | 1.2 | 0.904 | 1.11 | 0.605 | 0.527 | 0.477 | 0.441 | 0.452
UMC-11 | 0.333 | 0.337 | 0.333 | 0.33 | 0.269 | 0.303 | 0.35 | 0.291 | 0.334 | 0.329 | 0.702 | 0.647 | 0.56 | 0.564 | 0.818 | 0.35 | 0.377 | 0.36 | 0.412 | 0.369
EPLC-272H | 0.309 | – | – | 0.34 | 0.297 | 1.22 | – | 1.12 | 1.11 | 1.06 | 0.973 | – | 1.16 | – | 1.03 | 0.351 | – | – | 0.309 | 0.422
NCI-H2342 | 0.506 | 0.586 | 0.504 | 0.503 | 0.539 | – | – | – | – | – | – | – | – | – | – | 0.766 | 0.789 | 0.772 | 0.865 | 0.745
ABC-1 | 0.749 | – | 0.741 | 0.872 | 0.664 | – | – | – | – | – | 1.34 | – | 1.43 | 1.15 | 1.07 | 1.21 | – | 1.37 | 1.02 | 1.24
LOU-NH91 | 0.524 | 0.543 | 0.547 | 0.572 | 0.496 | 0.76 | – | 0.654 | 0.569 | 0.613 | 0.747 | 0.778 | 0.767 | 0.677 | 0.769 | 0.948 | 1.08 | 0.938 | 0.885 | 0.895
SW 900 | 0.549 | 0.644 | 0.617 | 0.566 | 0.588 | – | – | – | – | – | – | – | – | – | – | 0.615 | 0.564 | 0.538 | 0.654 | 0.409
NCI-H838 | 0.254 | 0.255 | 0.241 | 0.254 | 0.247 | 1.34 | 1.54 | 1.34 | 1.14 | 1.28 | 0.956 | 1.25 | – | 0.736 | 0.931 | 0.77 | 0.786 | 0.74 | 0.708 | 0.76
SK-LU-1 | 0.427 | 0.427 | 0.418 | 0.34 | 0.425 | 1.14 | – | 0.885 | 0.861 | 1.01 | 1.04 | 0.927 | 1.11 | 0.926 | 1.04 | 0.87 | 0.832 | 0.798 | 0.793 | 0.748
HCC-827 | 0.474 | 0.557 | 0.516 | 0.461 | 0.455 | 1.05 | 0.947 | 1.08 | 1.05 | 0.973 | 0.954 | 0.889 | 0.91 | – | 0.973 | 0.797 | 0.906 | 0.858 | 0.788 | 0.684
